In one assay the target is T1, ERBB4/ERBB4 (Homo sapiens, UniProt Q15303).
T1 construct: host or cells: U2OS (osteosarcoma cells), PathHunter engineered line
Briefly: PathHunter U2OS ERBB4/ERBB4 dimerization assay, 96-well dose-response. As to conditions: for ERBB4/ERBB4 dimerization signal: relative to signal with 0.1 µM NRG1, single biological replicates. The assay is classed as cell-based. The method, then: PathHunter U2OS ERBB4/ERBB4 (osteosarcoma cells; Eurofins, 93-0961C3), U2OS ERBB2/ERBB4 (osteosarcoma cells; Eurofins, 493-0960C3), ERBB2/ERBB3 (osteosarcoma cells; Eurofins, 93-1042C3) and ERBB1/ERBB1 (osteosarcoma cells; Eurofins, 93-0989C3) dimerization cell lines were cultured according to the manufacturer’s instructions. Briefly, cells were cultured in Cell Culture Reagent 103 (Eurofins, 92-3103 G) supplemented with 250 µg/mL Hygromycin B (Eurofins, 92-0029) and 500 µg/mL G418 (Eurofins, 92-0030), and were maintained at 37 °C in humidified atmosphere of 5% CO2. HCFs (Innoprot, P10454) were cultured in fibroblast medium (Innoprot, P60108) supplemented with 10% (v/v) fetal bovine serum (FBS, Innoprot), 10% (v/v) fibroblast growth supplement (Innoprot), and 1% (v/v) penicillin/streptomycin solution (Innoprot). iAMs[33] (kindly provided by LUMC) were cultured in Advanced DMEM F-12 (Thermo Fisher Scientific, 12634028) supplemented with 2% (v/v) heat-inactivated FBS (Thermo Fisher Scientific, 10270106), 1% (v/v) penicillin/streptomycin (10,000 units/mL and 10 mg/mL respectively, Thermo Fisher Scientific, 15140122), 1× GlutaMAX (Thermo Fisher Scientific, 35050061), and 100 ng/mL doxycycline (Tocris, 4090) for proliferation. To induce differentiation, iAMs were transferred to medium without doxycycline.
U2OS ERBB4/ERBB4 dimerization cells were seeded at a density of 5 × 10^4 cells/well in 100 µL Cell Plating 0 Reagent, in white 96-well plates (PerkinElmer, 6005680) and incubated for 24 h at 37 °C, 5% CO2. […] Next, 110 µL PathHunter Flash Detection Reagent was added to each well and incubated at RT for 1 h after which the luminescence signal was measured using the Luminoskan Ascent (Thermo Fisher Scientific). […] The same experimental set-up was used for the U2OS ERBB2/ERBB4, U2OS ERBB2/ERBB3 and U2OS ERBB1/ERBB1 dimerization cell lines.
Category Parameter Description
Assay Type of assay PathHunter Dimerization assays provide a robust, highly sensitive and easy-to-use cell-based functional assay to study various protein activities in a cell. The assay s use
Enzyme Fragment Complementation technology, where the b-galactosidase (b-gal) enzyme is split into two fragments, ProLink and Enzyme Acceptor. Independently these fragments have no b-gal activity. However, when forced to complement through protein-protein interactions, they form an active b-gal enzyme. The PathHunter Dimerization assay detects ligand induced dimerization of two subunits of a receptor-dimer pair. The cells have been engineered to co-express one receptor subunit (ERBB4) fused to Enzyme
Donor, and a second dimer partner (ERBB4) fused to Enzyme Acceptor. Binding of an agonist to one receptor subunit induces it to interact with its dimer partner, forcing complementation of the two enzyme […]
functional enzyme that hydrolyzes a substrate to generate a chemiluminescent signal.
Target ErbB4 receptor (RTK receptor)
Primary measurement Detection of chemiluminescent signal, induced by small-molecule ErbB4 agonists
Key reagents PathHunter Dimerization ErbB4/ErbB4 Cell
Line (93-0961C3) - PathHunter Flash
Detection Kit (03 -0247) - AssayComplete Cell
AssayComplete Cell Detachment Reagent
(92-0009) - AssayComplete Thawing Reagent
T3 (92-4103TR) - AssayComplete Freezing
Assay protocol https://www.discoverx.com/catalog/pathhun

A further assay relates to HCFs. Briefly: In vitro collagen expression: COL3A1 mRNA in HCFs stimulated with TGF-β1. The assay is classed as cell-based, human. As to conditions: for COL3A1 mRNA expression (FC): NA-1, TGF-β1 10 ng/mL, 24 h, single replicates. The method, then:
HCFs were seeded at a density of 1.5 ×10^5 cells/well in doxycycline-free medium in 12-well plates (Greiner Bio-One, 665180) and incubated overnight. […] Compounds were pre-incubated for 10 min before addition of TGF-β1.
RNA was extracted using Nucleospin RNA XS (Macherey-Nagel, 740902.50) according to the manufacturer’s instructions. For cDNA synthesis, total RNA was added to a mixture containing buffer with random hexamers and reverse transcriptase enzyme (TaqMan reverse transcription reagents, Applied biosystems, N8080234) after which samples were incubated for 10 min at 25 °C, 30 min at 48 °C, and 5 min at 95 °C. RT-qPCR was performed on QuantStudio 3 Real-time PCR system (Applied Biosystems) using Taqman Universal PCR Master Mix (Applied Biosystems, 4304437) and Taqman primers according to the manufacturer’s instructions. Settings were as follows: […] followed by 10 min at 95 °C, 40 cycles (45 cycles for ERBB4) of denaturation at 95 °C for 15 s, and 1 min at 60 °C. All reactions were run in duplicate, and all data were normalized against housekeeping genes glyceraldehyde-3-phosphate dehydrogenase (GAPDH), beta-actin (ACTB), or phosphoglycerate kinase 1 (PGK1). Expression levels were calculated using the comparative cycle method and expressed as fold change (FC) to appropriate controls. The following TaqMan primers were used (Thermo Fisher Scientific): GAPDH (Hs02758991_g1, Mm99999915_g1 and Rn01775763_g1), PGK1 (Hs99999906_m1), ID2 (Hs04187239_m1), BMPR1B (Hs01010965_m1), CACNA2D4 (Hs00297782_m1), DUSP2 (Hs00358879_m1), NR4A1 (Hs00374226_m1), SGK1 (Hs00178612_m1), COL1A1 (Mm00801666_g1), COL3A1 (Hs00943809_m1 and Mm00802305_g1), ERBB4 (Hs00955525_m1 and Rn00572447_m1), ACTB (Mm02619580_g1) and ANP (Mm01255747_g1).

In a further assay the test system is iAMs. Briefly: H2O2-induced cell death assay in iAMs (Toxilight), also with LY294002. The settings on record: H2O2 100 µM; for total cell death of iAMs (percentage of total dead cells): NA-1, 4 h, single replicates.

Where “and” joins values, the source holds several entries; their conditions need not be identical. Identical values can stand only once.

T1 sequence (Q15303 26-1308): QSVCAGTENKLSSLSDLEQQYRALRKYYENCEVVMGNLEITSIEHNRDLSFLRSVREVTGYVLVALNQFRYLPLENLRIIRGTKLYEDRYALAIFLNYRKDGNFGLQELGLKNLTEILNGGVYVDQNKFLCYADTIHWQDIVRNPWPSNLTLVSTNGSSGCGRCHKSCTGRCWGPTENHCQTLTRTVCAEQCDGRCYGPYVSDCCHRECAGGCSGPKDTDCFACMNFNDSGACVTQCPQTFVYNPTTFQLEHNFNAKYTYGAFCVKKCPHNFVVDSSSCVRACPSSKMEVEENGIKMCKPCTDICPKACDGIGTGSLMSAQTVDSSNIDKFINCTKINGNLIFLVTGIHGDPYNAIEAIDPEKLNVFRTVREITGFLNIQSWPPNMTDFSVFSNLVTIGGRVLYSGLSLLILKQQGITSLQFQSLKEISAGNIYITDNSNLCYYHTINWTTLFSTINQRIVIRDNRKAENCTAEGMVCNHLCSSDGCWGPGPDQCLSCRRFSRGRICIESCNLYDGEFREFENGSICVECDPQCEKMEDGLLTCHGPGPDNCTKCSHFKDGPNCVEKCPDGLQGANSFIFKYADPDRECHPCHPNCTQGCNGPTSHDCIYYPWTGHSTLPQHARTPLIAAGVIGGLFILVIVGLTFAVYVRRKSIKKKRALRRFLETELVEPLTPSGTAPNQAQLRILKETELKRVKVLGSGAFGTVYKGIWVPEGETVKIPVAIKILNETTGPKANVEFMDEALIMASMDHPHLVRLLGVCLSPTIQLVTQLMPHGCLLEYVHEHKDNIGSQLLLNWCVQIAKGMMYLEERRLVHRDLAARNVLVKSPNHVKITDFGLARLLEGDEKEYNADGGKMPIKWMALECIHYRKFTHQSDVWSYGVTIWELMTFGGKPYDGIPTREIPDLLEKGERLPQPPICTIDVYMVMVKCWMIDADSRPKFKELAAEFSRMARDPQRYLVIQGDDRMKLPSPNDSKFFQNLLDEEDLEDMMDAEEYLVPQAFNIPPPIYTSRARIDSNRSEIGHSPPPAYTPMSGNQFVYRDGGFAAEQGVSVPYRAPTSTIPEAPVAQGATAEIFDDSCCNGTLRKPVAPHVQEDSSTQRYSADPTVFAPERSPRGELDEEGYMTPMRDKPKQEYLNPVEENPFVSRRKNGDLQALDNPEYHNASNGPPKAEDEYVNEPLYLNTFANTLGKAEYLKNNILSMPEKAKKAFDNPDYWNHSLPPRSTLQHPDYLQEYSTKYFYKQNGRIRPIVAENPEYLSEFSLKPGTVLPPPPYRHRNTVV
T1 sequence (Q15303 26-1308): as above
Description for iAMs: Subsequently, H2O2 (100 µM; Merck, H1009) was added and the cells were incubated for 4 h at 37 °C. All wells contained DMSO at a final concentration of 0.9%. […] After incubation at RT for 5 min, luminescence was measured using the Luminoskan Ascent.

For `Cc1sc2nc(SC(C)C(=O)NCc3ccc4c(c3)OCO4)n(-c3ccccc3)c(=O)c2c1C` (stereo not shown) [NA-1], the “induction of ERBB4 dimerization (in words)” value at ERBB4/ERBB4 is listed as “did not activate ERBB4”. Also, the ERBB4/ERBB4 dimerization signal at ERBB4/ERBB4 (3.125e-8 M) was 0; at ERBB4/ERBB4 (1.25e-7 M), -1.9 and -5.83; at ERBB4/ERBB4 (5e-7 M), -1.92 and -5.07; at ERBB4/ERBB4 (2e-6 M), -1.85 and -3.89; at ERBB4/ERBB4 (8e-6 M) it was -1.52 and -5.16; at ERBB4/ERBB4 (3.2e-5 M), -1.83 and -4.37. In addition, in the assay with HCFs (4–32 µM), the “effect on TGF-β1-induced COL3A1 expression in HCFs (in words)” value is “did not affect COL3A1 expression”. For the same compound, the “COL3A1 mRNA expression (FC)” value was 1 in the assay with HCFs (1e-6 M); 0.6694 and 0.8324 and 0.8909 in the assay with HCFs (4e-6 M); 0.9443 and 0.7317 and 0.6882 with HCFs (8e-6 M); 0.7688 and 0.6597 and 0.5112 in the assay with HCFs (1.6e-5 M); 0.7866 and 0.7983 and 0.6723 in the assay with HCFs (3.2e-5 M). Further, in the assay with iAMs, the “effect on cardiomyocyte survival (in words)” value is listed as “did not have a significant effect on cardiomyocyte survival”. Also, the “total cell death of iAMs (percentage of total dead cells)” value in the assay with iAMs (1e-6 M) was 60.0225 and 62.2886 and 68.0221; in the assay with iAMs (4e-6 M) it was 64.78 and 60.57 and 53.32 and 58.95; in the assay with iAMs (8e-6 M), 63.16 and 63.84 and 49.27 and 56.61; with iAMs (1.6e-5 M), 61.57 and 64.49 and 50.09 and 59.17; in the assay with iAMs (3.2e-5 M), 63.24 and 58.6 and 49.06 and 56.03.

The record behind these values is paper PMC11724075, “Small-molecule-induced ERBB4 activation to treat heart failure” (Nature Communications, 2025).
